“And” between values parts separate entries of the source, which are not always exact repeats. Equal entries are not always repeated.
Experiments:
Test in all cases: KINATIV assay of compounds I-3 and I-9, lysate directly labeled with ATP-biotin probe (no GF)
Type in all cases: cell-based
kinases in BCWM.1 cells [1] = biological target: kinases in BCWM.1 cells (Homo sapiens, UniProt O00329); details: PIK3CD; ATP; 1 μM, 90 min; no GF
Description: (§1) The cells were harvested and lysed. […] Bound kinases were identified and quantitated by ACTIVX as described in Patricelli et al., Biochemistry, 2007, 46(2): 350-358. The compounds were tested in duplicates against duplicate or quadruplicate control samples.

kinases in BCWM.1 cells [2] = biological target: kinases in BCWM.1 cells (Homo sapiens, UniProt O00750); details: PIK3C2B; ATP; 1 μM, 90 min; no GF
Description: as §1

kinases in BCWM.1 cells [3] = biological target: kinases in BCWM.1 cells (Homo sapiens, UniProt O75385); details: ULK1; Lys2; 1 μM, 90 min; no GF
Description: as §1

kinases in BCWM.1 cells [4] = biological target: kinases in BCWM.1 cells (Homo sapiens, UniProt P12931); details: SRC; Lys1; 1 μM, 90 min; no GF
Description: as §1

kinases in BCWM.1 cells [5] = biological target: kinases in BCWM.1 cells (Homo sapiens, UniProt P19525); details: PKR; Lys2; 1 μM, 90 min; no GF
Description: as §1

kinases in BCWM.1 cells [6] = biological target: kinases in BCWM.1 cells (Homo sapiens, UniProt P21127); details: PITSLRE; Lys2; 1 μM, 90 min; no GF
Description: as §1

kinases in BCWM.1 cells [7] = biological target: kinases in BCWM.1 cells (Homo sapiens, UniProt P30291); details: Wee1; Lys2; 1 μM, 90 min; no GF
Description: as §1

kinases in BCWM.1 cells [8] = biological target: kinases in BCWM.1 cells (Homo sapiens, UniProt P42680); details: TEC; Activation Loop; 1 μM, 90 min; no GF
Description: as §1

kinases in BCWM.1 cells [9] = biological target: kinases in BCWM.1 cells (Homo sapiens, UniProt P43405); details: SYK; Activation Loop; 1 μM, 90 min; no GF
Description: as §1

kinases in BCWM.1 cells [10] = biological target: kinases in BCWM.1 cells (Homo sapiens, UniProt P48736); details: PIK3CG; ATP; 1 μM, 90 min; no GF
Description: as §1

kinases in BCWM.1 cells [11] = biological target: kinases in BCWM.1 cells (Homo sapiens, UniProt P51955); details: NEK2; Lys2; 1 μM, 90 min; no GF
Description: as §1

kinases in BCWM.1 cells [12] = biological target: kinases in BCWM.1 cells (Homo sapiens, UniProt Q00536)
Description: as §1

kinases in BCWM.1 cells [13] = biological target: kinases in BCWM.1 cells (Homo sapiens, UniProt Q16539); details: p38a, 1 μM, 90 min, no GF
Description: as §1

kinases in BCWM.1 cells [14] = biological target: kinases in BCWM.1 cells (Homo sapiens, UniProt Q58A45); details: PAN3; Protein Kinase Domain; 1 μM, 90 min; no GF
Description: as §1

kinases in BCWM.1 cells [15] = biological target: kinases in BCWM.1 cells (Homo sapiens, UniProt Q86UE8); details: TLK2; Lys2; 1 μM, 90 min; no GF
Description: as §1

kinases in BCWM.1 cells [16] = biological target: kinases in BCWM.1 cells (Homo sapiens, UniProt Q8TDX7); details: NEK7; Lys1; 1 μM, 90 min; no GF
Description: as §1

kinases in BCWM.1 cells [17] = biological target: kinases in BCWM.1 cells (Homo sapiens, UniProt Q96BR1); details: SGK3; Lys1; 1 μM, 90 min; no GF
Description: as §1

kinases in BCWM.1 cells [18] = biological target: kinases in BCWM.1 cells (Homo sapiens, UniProt Q96PY6); details: NEK1; Lys2; 1 μM, 90 min; no GF
Description: as §1

kinases in BCWM.1 cells [19] = biological target: kinases in BCWM.1 cells (Homo sapiens, UniProt Q96S44); details: PRPK; ATP Loop; 1 μM, 90 min; no GF
Description: as §1

kinases in BCWM.1 cells [20] = biological target: kinases in BCWM.1 cells (Homo sapiens, UniProt Q9BYT3); details: STK33; Lys2; 1 μM, 90 min; no GF
Description: as §1

kinases in BCWM.1 cells [21] = biological target: kinases in BCWM.1 cells (Homo sapiens, UniProt Q9UBE8); details: NLK; Lys2; 1 μM, 90 min; no GF
Description: as §1

kinases in BCWM.1 cells [22] = biological target: kinases in BCWM.1 cells (Homo sapiens, UniProt Q9UBF8); details: PI4KB; ATP; 1 μM, 90 min; no GF
Description: as §1

kinases in BCWM.1 cells [23] = biological target: kinases in BCWM.1 cells (Homo sapiens, UniProt Q9UBS0); details: p70S6Kb; Lys2; 1 μM, 90 min; no GF
Description: as §1

kinases in BCWM.1 cells [24] = biological target: kinases in BCWM.1 cells (Homo sapiens, UniProt Q9UHD2); details: TBK1; Lys1; 1 μM, 90 min; no GF
Description: as §1

kinases in BCWM.1 cells [25] = biological target: kinases in BCWM.1 cells (Homo sapiens, UniProt Q9Y2I7); details: PIP5K3; ATP; 1 μM, 90 min; no GF
Description: as §1

kinases in BCWM.1 cells [26] = details: 1 μM, no GF
Description: as §1

Sequence of kinases in BCWM.1 cells (Homo sapiens, UniProt Q16539) (Q16539 2-360 limits assumed): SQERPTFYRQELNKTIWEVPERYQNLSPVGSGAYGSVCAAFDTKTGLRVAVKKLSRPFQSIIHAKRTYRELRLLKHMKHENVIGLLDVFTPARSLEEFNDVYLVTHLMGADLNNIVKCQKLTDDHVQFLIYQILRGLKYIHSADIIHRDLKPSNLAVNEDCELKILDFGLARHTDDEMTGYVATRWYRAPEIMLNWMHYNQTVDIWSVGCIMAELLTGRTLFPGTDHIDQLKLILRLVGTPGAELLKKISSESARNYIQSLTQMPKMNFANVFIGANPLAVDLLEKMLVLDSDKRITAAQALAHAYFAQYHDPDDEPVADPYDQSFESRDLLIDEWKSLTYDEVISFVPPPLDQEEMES
Sequence of kinases in BCWM.1 cells (Homo sapiens, UniProt Q9Y2I7) (Q9Y2I7 2-2098 limits assumed): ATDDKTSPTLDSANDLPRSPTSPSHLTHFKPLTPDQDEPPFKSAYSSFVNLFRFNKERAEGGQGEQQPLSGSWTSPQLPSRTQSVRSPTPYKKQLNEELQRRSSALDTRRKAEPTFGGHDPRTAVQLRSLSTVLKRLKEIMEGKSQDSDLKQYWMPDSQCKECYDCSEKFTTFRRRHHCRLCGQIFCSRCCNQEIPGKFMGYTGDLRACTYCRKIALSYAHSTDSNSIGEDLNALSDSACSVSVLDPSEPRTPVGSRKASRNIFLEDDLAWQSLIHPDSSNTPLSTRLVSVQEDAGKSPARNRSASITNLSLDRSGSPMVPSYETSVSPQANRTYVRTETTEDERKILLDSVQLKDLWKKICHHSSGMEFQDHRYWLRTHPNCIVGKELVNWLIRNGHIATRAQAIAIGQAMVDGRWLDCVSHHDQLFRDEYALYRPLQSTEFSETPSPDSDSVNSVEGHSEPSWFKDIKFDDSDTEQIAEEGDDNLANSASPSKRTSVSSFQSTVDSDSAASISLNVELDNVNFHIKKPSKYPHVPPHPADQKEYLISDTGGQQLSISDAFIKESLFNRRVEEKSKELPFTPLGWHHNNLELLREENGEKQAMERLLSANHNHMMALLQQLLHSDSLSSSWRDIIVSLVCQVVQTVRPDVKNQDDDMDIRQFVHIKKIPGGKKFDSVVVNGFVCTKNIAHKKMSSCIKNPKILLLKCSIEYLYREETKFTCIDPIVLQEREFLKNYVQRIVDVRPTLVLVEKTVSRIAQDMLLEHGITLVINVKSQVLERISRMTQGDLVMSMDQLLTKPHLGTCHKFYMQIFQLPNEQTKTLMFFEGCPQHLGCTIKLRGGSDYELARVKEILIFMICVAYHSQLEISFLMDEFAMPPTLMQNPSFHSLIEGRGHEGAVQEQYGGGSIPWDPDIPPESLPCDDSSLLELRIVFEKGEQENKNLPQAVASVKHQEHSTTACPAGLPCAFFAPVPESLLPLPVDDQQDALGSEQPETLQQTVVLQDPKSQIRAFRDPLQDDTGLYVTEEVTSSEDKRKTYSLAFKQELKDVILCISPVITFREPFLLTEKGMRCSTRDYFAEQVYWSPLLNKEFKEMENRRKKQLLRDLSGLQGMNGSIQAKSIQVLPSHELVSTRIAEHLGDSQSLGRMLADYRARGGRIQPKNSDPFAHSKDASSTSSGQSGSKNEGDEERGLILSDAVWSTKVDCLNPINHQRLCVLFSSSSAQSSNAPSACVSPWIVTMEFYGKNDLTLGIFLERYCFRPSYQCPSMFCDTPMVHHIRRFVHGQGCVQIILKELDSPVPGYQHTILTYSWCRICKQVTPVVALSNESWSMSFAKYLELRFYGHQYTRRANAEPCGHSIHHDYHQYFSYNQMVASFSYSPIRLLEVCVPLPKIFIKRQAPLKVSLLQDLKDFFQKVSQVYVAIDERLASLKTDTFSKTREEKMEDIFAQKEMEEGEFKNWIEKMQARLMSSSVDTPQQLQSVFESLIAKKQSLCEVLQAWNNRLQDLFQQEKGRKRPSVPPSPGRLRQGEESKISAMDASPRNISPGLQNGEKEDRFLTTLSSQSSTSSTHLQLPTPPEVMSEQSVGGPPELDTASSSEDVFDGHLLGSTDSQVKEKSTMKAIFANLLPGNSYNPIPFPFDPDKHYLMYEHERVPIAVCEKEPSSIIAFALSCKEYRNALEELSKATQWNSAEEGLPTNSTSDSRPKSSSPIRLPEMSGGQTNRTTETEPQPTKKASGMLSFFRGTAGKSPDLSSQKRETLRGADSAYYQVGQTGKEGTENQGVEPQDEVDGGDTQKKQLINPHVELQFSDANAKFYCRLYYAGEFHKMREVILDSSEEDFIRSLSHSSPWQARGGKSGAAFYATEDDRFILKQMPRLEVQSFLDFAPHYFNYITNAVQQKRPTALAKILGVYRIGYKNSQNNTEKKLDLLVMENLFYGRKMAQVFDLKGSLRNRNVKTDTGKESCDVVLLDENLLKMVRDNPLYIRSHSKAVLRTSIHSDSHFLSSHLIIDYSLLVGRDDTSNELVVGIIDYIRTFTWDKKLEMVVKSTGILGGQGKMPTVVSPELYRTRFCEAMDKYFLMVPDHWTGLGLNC
Sequence of kinases in BCWM.1 cells (Homo sapiens, UniProt Q9UBF8) (Q9UBF8 2-816 limits assumed): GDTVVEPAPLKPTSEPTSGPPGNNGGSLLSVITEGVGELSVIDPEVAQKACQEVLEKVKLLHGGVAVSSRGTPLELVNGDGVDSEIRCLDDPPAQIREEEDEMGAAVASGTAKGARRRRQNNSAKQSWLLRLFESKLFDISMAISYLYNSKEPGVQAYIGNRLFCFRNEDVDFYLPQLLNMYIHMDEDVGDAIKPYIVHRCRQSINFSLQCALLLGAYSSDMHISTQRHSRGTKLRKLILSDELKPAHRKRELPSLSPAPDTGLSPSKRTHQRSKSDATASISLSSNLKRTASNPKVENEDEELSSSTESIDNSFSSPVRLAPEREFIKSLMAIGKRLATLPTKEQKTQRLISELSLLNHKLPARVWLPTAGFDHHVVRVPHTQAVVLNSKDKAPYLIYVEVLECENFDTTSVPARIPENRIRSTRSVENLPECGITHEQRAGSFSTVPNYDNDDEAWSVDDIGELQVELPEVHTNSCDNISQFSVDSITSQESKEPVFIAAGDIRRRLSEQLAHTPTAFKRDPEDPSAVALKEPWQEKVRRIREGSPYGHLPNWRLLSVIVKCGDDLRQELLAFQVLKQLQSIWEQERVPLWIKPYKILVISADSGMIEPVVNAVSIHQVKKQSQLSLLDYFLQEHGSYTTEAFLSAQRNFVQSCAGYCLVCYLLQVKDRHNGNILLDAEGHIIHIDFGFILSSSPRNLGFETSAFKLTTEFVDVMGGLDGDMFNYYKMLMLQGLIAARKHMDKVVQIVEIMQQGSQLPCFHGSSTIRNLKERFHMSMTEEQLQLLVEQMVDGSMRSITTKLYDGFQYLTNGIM
Sequence of kinases in BCWM.1 cells (Homo sapiens, UniProt P19525) (P19525 2-551 limits assumed): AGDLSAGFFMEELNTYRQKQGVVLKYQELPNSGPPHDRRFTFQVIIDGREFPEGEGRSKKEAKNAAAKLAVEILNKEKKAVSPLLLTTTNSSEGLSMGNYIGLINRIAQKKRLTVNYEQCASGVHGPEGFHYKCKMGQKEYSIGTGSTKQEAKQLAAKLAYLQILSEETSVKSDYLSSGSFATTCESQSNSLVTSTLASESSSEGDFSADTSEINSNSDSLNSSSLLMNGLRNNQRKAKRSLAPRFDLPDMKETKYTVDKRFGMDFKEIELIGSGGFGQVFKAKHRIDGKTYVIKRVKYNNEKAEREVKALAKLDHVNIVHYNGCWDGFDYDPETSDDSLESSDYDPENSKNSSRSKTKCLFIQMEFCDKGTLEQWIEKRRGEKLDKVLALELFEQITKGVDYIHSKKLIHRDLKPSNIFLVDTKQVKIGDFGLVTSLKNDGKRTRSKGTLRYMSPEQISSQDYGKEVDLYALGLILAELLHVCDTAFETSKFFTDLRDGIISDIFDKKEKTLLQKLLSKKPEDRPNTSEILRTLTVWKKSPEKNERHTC
Sequence of kinases in BCWM.1 cells (Homo sapiens, UniProt P12931) (P12931 2-536 limits assumed): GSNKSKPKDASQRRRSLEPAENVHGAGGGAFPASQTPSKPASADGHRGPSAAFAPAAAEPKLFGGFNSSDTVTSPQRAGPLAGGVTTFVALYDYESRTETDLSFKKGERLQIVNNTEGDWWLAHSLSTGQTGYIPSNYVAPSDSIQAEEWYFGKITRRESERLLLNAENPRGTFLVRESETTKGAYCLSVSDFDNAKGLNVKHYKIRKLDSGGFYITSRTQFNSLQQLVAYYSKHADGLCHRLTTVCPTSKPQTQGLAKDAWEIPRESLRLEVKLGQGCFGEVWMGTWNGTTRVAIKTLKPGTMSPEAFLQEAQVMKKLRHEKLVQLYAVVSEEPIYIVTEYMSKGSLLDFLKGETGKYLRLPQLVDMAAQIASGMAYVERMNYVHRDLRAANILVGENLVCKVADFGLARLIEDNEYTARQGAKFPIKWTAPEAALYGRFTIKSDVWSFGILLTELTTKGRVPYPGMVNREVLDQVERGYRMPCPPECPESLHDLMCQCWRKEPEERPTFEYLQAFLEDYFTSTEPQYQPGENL

C=CC(=O)N1CC[C@H](Nc2nccc(Nc3ncc(C(=O)Nc4c(C)cccc4C)s3)n2)C1 [Example I-3]
% change of MS signal compared to control sample (kinases in BCWM.1 cells [1]): −3.4% | % change of MS signal compared to control sample (kinases in BCWM.1 cells [2]): −1.8% | % change of MS signal compared to control sample (kinases in BCWM.1 cells [3]): 9.9% | % change of MS signal compared to control sample (kinases in BCWM.1 cells [4]): 91.7% | % change of MS signal compared to control sample (kinases in BCWM.1 cells [5]): −3.6% | % change of MS signal compared to control sample (kinases in BCWM.1 cells [6]): −14.1% | % change of MS signal compared to control sample (kinases in BCWM.1 cells [7]): −32.7% | % change of MS signal compared to control sample (kinases in BCWM.1 cells [8]): >91% | % change of MS signal compared to control sample (kinases in BCWM.1 cells [9]): −1.2% | % change of MS signal compared to control sample (kinases in BCWM.1 cells [10]): −9.6% | % change of MS signal compared to control sample (kinases in BCWM.1 cells [11]): 20.5% | % change of MS signal compared to control sample (kinases in BCWM.1 cells [12]): 10% | % change of MS signal compared to control sample (kinases in BCWM.1 cells [13]; Lys2): 43.5% | % change of MS signal compared to control sample (kinases in BCWM.1 cells [13]; Protein Kinase Domain): 32.6% | % change of MS signal compared to control sample (kinases in BCWM.1 cells [14]): −17.5% | % change of MS signal compared to control sample (kinases in BCWM.1 cells [15]): −3% | % change of MS signal compared to control sample (kinases in BCWM.1 cells [16]): 5.7% | % change of MS signal compared to control sample (kinases in BCWM.1 cells [17]): −0.4% | % change of MS signal compared to control sample (kinases in BCWM.1 cells [18]): 7.4% | % change of MS signal compared to control sample (kinases in BCWM.1 cells [19]): 2.1% | % change of MS signal compared to control sample (kinases in BCWM.1 cells [20]): −6.1% | % change of MS signal compared to control sample (kinases in BCWM.1 cells [21]): 66.2% | % change of MS signal compared to control sample (kinases in BCWM.1 cells [22]): 6.4% | % change of MS signal compared to control sample (kinases in BCWM.1 cells [23]): −36.7% | % change of MS signal compared to control sample (kinases in BCWM.1 cells [24]): −25.1% | % change of MS signal compared to control sample (kinases in BCWM.1 cells [25]): 6.5% | % change of MS signal compared to control sample (kinases in BCWM.1 cells [26]; ABL, ARG, Activation Loop): 75.4% and 93.5% | % change of MS signal compared to control sample (kinases in BCWM.1 cells [26]; ABL, ARG, Lys1): 86.9% and 93.2% | % change of MS signal compared to control sample (kinases in BCWM.1 cells [26]; AKT2, AKT3, ATP Loop): −19.2% and −14.5% | % change of MS signal compared to control sample (kinases in BCWM.1 cells [26]; AurA, AurB, AurC, ATP Loop): 7.7% and 4.7% | % change of MS signal compared to control sample (kinases in BCWM.1 cells [26]; FYN, SRC, YES, Activation Loop): 87.3% and 85.7% | % change of MS signal compared to control sample (kinases in BCWM.1 cells [26]; MARK3, MARK4, Lys1): 2.5% and −4% | % change of MS signal compared to control sample (kinases in BCWM.1 cells [26]; MER, TYRO3, Activation Loop): 2.4% and 0.4% | % change of MS signal compared to control sample (kinases in BCWM.1 cells [26]; MST4, YSK1, Lys2, 90 min): 18.1% | % change of MS signal compared to control sample (kinases in BCWM.1 cells [26]; NEK6, NEK7, Lys2, 90 min): 6.4% | % change of MS signal compared to control sample (kinases in BCWM.1 cells [26]; PCTAIRE2, PCTAIRE3, Lys1, 90 min): −0.4% | % change of MS signal compared to control sample (kinases in BCWM.1 cells [26]; PI4KA, PI4KAP2, ATP, 90 min): −3.7% | % change of MS signal compared to control sample (kinases in BCWM.1 cells [26]; PKACa, PKCb, Lys2, 90 min): 2.4% | % change of MS signal compared to control sample (kinases in BCWM.1 cells [26]; ROCK1, ROCK2, Lys2, 90 min): −22.2% | % change of MS signal compared to control sample (kinases in BCWM.1 cells [26]; RSK1 domain1, RSK2 domain1, RSK3 domain1, Lys2, 90 min): −14.8% | % change of MS signal compared to control sample (kinases in BCWM.1 cells [26]; SRPK1, SRPK2, Lys1, 90 min): −3% | % change of MS signal compared to control sample (kinases in BCWM.1 cells [26]; TAO1, TAO3, Lys2, 90 min): 7.8% | % change of MS signal compared to control sample (kinases in BCWM.1 cells [26]; Wnk1, Wnk2, Wnk3, Lys2, 90 min): 14.9% | % change of MS signal compared to control sample (kinases in BCWM.1 cells [26]; Wnk1, Wnk2, ATP Loop, 90 min): 13.1% | % change of MS signal compared to control sample (kinases in BCWM.1 cells [26]; ZC1/HGK, ZC2/TNIK, ZC3/MINK, Lys2, 90 min): 2.7% | % change of MS signal compared to control sample (kinases in BCWM.1 cells [26]; p38d, p38g, Lys2, 90 min): 5.7%
